Like-named read-outs stand apart in the source and are kept apart here. Positions of bridges follow the written chain, without caps; N, C: chain ends. Residues, ends and D or L forms follow the SMILES beside them.
Experiments:
human wild-type CFTR [1] = biological target: T1, human wild-type CFTR (Homo sapiens, UniProt P13569); experiment: Cell-based plate reader (YFP iodide influx) assay of CFTR function; parameters: expressed in transfected cells; host or cells: Fischer rat thyroid (FRT) cells stably co-expressing YFP-H148Q; settings: commercial analogs
T1 sequence (P13569 whole entry): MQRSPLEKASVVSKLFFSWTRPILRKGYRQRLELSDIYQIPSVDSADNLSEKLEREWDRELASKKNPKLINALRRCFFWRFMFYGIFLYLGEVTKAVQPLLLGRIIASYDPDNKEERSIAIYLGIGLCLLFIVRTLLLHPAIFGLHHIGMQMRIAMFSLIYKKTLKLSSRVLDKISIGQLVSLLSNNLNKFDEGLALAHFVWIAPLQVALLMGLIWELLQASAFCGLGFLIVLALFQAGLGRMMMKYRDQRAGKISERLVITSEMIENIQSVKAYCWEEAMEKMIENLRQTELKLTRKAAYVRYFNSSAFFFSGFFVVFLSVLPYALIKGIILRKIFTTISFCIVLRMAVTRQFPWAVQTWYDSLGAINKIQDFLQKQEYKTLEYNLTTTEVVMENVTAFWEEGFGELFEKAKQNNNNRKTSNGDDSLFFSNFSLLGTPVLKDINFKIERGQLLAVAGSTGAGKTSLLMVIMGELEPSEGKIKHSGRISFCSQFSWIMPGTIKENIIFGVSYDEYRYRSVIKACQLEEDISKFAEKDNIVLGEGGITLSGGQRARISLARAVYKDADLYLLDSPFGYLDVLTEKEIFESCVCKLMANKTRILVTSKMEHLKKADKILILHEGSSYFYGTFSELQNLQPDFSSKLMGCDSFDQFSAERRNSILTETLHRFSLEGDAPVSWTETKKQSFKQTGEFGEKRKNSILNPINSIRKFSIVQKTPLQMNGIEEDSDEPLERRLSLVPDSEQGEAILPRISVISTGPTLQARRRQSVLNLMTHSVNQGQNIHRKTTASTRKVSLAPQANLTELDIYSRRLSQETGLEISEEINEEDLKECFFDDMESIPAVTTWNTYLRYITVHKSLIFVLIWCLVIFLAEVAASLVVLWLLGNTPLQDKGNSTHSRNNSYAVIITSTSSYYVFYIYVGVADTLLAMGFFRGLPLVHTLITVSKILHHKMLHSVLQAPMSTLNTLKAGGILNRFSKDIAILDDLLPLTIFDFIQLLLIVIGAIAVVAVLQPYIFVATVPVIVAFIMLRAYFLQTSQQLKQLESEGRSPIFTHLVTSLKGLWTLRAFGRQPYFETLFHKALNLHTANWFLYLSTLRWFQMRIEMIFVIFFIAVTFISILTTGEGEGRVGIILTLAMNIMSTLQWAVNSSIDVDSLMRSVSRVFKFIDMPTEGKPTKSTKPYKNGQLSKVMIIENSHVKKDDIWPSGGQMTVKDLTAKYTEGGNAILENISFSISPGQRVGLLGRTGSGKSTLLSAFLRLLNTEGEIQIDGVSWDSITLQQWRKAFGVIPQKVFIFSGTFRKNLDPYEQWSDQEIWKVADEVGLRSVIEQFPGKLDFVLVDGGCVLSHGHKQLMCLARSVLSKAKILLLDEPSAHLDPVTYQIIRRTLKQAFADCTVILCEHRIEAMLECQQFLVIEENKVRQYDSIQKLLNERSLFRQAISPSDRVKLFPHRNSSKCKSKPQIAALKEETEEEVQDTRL
Experimental: The initiate rate of I^− influx was computed by determined using exponential regression. All compound plates contained negative controls (DMSO vehicle) and positive controls (20 μM forskolin).
High-throughput screening. […] The initiate rate of I^− influx was computed by determined using exponential regression. All compound plates contained negative controls (DMSO vehicle) and positive controls ([…] forskolin).
Platereader assays of chloride channel function. CFTR activity was assayed as described. […] I^− influx was measured in a plate reader with initial baseline read for 2 s and then for 12 s after rapid addition of an I^−-containing solution. TMEM16A activity was assayed similarly as described using FRT cells co-expressing YFP and TMEM16A. Activity of non-TMEM16A CaCC was assayed as described in HT-29 cells expressing YFP. In each assay initial rates of I^− influx were computed as a linear measure of channel function.

human wild-type CFTR [2] = biological target: T1, human wild-type CFTR; experiment: Short-circuit current in FRT cells expressing wild-type human CFTR; assay type: cell-based; parameters: expressed in transfected cells; settings: 100% = 20 μM forskolin
Experimental: Short-circuit current was measured in FRT cells stably expressing wild-type human CFTR cultured on porous filters as described. The basolateral solution contained 130 mM NaCl, 2.7 mM KCl, 1.5 mM KH2PO4, 1 mM CaCl2, 0.5 mM MgCl2, 10 mM glucose, and 10 mM Na-HEPES (pH 7.3, 37° C.). In the apical solution 65 mM NaCl was replaced by Na gluconate, and CaCl2 was increased to 2 mM, and the basolateral membrane was permeabilized with 250 μg/ml amphotericin B. Short-circuit current was measured in freshly harvested adult mouse colon at 37° C. using symmetrical Krebs-bicarbonate buffer.
(§1) Fischer rat thyroid (FRT) cells stably expressing wild-type human CFTR were cultured on Snapwell inserts (Corning Costar, Corning N.Y., USA) for short-circuit current (Isc) measurements. After 6-9 days in culture, when the transepithelial resistance was >1000 Ω/cm^2, the inserts were mounted in an Ussing chamber system (World Precision Instruments, Sarasota, Fla., USA). The basolateral solution contained 130 mM NaCl, 2.7 mM KCl, 1.5 mM KH2PO4, 1 mM CaCl2, 0.5 mM MgCl2, 10 mM glucose, and 10 mM Na-HEPES (pH 7.3). In the apical bathing solution, 65 mM NaCl was replaced by Na gluconate, and CaCl2 was increased to 2 mM. Both solutions were bubbled with air and maintained at 37° C. The basolateral membrane was permeabilized with 250 μg/ml amphotericin B (26, 27). Hemichambers were connected to a DVC-1000 voltage clamp via Ag/AgCl electrodes and 3 M KCl agar bridges for Isc recording.
Short-circuit current measurement. Short-circuit current was measured in FRT cells stably expressing wild-type human CFTR cultured on porous filters as described. The basolateral solution contained 130 mM NaCl, 2.7 mM KCl, 1.5 mM KH2PO4, 1 mM CaCl2, 0.5 mM MgCl2, 10 mM glucose, and 10 mM Na-HEPES (pH 7.3, 37° C.). In the apical solution 65 mM NaCl was replaced by Na gluconate, and CaCl2 was increased to 2 mM, and the basolateral membrane was permeabilized with 250 μg/ml amphotericin B. Short-circuit current was measured in freshly harvested adult mouse colon at 37° C. using symmetrical Krebs-bicarbonate buffer.
as §1, with “Short-circuit current. Fischer” for “Fischer”
Short-circuit current measurement. Short-circuit current measurements were done as described. Briefly, Snapwell (Corning Costar, Corning, N.Y.) inserts containing CFTR-expressing FRT cells or human bronchial epithelial cells were mounted in Ussing chambers (Physiological Instruments, San Diego, Calif.). For FRT cells the hemichambers were filled with 5 ml of HCO3^−-buffered solution (basolateral) and half-Cl^− solution (apical), and the basolateral membrane was permeabilized with 250 μg/ml amphotericin B. Symmetrical HCO3^−-buffered solutions were used for human bronchial epithelial cells. Solutions were bubbled with 95% O2/5% CO2 and maintained at 37° C., and short-circuit current was measured on a DVC-1000 voltage clamp (World Precision Instruments Inc., Sarasota, Fla.) using Ag/AgCl electrodes and 3 M KCl agar bridges.

[3] = test system: CFTR activity at the ocular surface; experiment: Ocular surface potential difference (PD) in living mice; assay type: in vivo, mouse; settings: CF mice lacking functional CFTR
Experimental: (§2) Open-circuit transepithelial PD were measured continuously in anesthetized mice in response to serial perfusions of different solutions over the ocular surface, as described (21). Mice were anesthetized with Avertin (2,2,2-tribromoethanol, 125 mg/kg intraperitoneal, Sigma-Aldrich, St. Louis, Mo., USA), and core temperature was maintained at 37° C. using a heating pad. Eyes were oriented with the cornea and conjunctiva facing upward and exposed by retracting the eyelid with cross-action forceps. Solutions were isosmolar (320±10 mOsM; compositions provided in ref. 21) and contained 10μ[…] Qindomethacin to prevent CFTR activation by prostaglandins. The ocular surface was perfused at 6 mL/min through plastic tubing using a multireservoir gravity pinch-valve system (ALA Scientific, Westbury, N.Y., USA) and variable-flow peristaltic pump (medium flow model; Fisher Scientific, Fair Lawn, N.J., USA). A probe catheter was fixed 1 mm above the cornea using a micropositioner and a suction cannula was positioned 3 mm from the orbit. The measuring electrode was in contact to the perfusion catheter and connected to a high-impedance voltmeter (IsoMilivolt Meter; WPI). The reference electrode was grounded via a winged 21-gauge needle filled with isosmolar saline, and inserted subcutaneously in the abdomen. Measuring and reference electrodes consisted of Ag/AgCl with 3 M KCl agar bridges.
An open-circuit potential difference (PD) method developed in our lab was used to evaluate compound activity at the ocular surface in vivo, as depicted in FIG. 3A (21). Cl^− channel function was quantified by measuring PD during continuous perfusion of the ocular surface with a series of solutions that imposed a transepithelial Cl^− gradient and contained various channel agonists and/or inhibitors. The ocular surface was first perfused with isosmolar saline to record the baseline PD. Amiloride was then added to the perfusate, followed by exchange to a low Cl^− solution in which Cl^− with an impermeant anion, gluconate. These maneuvers allow for direct visualization of CFTR activation in response to addition of candidate CFTR activators.
as §2, with “Ocular surface potential difference measurements. Open-circuit” for “Open-circuit”, “indomethacin” for “Qindomethacin”, “Measuring and reference electrodes consisted of Ag/AgCl with 3 M KCl agar bridges.” left out

constipation patients = settings: cited from earlier work
loperamide-treated mice = experiment: Loperamide-induced mouse model of constipation (3-h stool weight, pellet number, water content); settings: oral 0.5 mg/kg, loperamide-treated mice

| Compound | % Activation (human wild-type CFTR [1]; FRT cells with YFP and wildtype CFTR, 125 nM forskolin) | EC50 (human wild-type CFTR [1]; read-out: EC50 (full-dose response assay, compounds >80% activation)) | CFTR activation, Vmax (human wild-type CFTR [2]) | change in ocular surface PD in CF mice [3] | patients in whom the drug was effective (constipation patients; chronic constipation patients) | stool output response as % of the maximal CFTRact-J027 response (loperamide-treated mice) | patients in whom the drug was effective (constipation patients; IBS-C patients) |
| --- | --- | --- | --- | --- | --- | --- | --- |
| CNc1nc(Nc2ccc([N+](=O)[O-])cc2)nc(OCC(F)(F)C(F)F)n1 [K032] | 105% | 70 nM | ~50 % Vmax | no changes in PD |  |  |  |
| C[C@@H]1NC(=O)[C@@H]2CCCN2C(=O)[C@H](CC(N)=O)NC(=O)[C@@H]2CSSC[C@H](N)C(=O)N[C@H]3CSSC[C@H](NC1=O)C(=O)N[C@@H]([C@@H](C)O)C(=O)NCC(=O)N[C@H](C(=O)N[C@@H](Cc1ccc(O)cc1)C(=O)O)CSSC[C@H](NC(=O)[C@H](Cc1ccc(O)cc1)NC(=O)[C@H](CCC(=O)O)NC3=O)C(=O)N2 [linaclotide, reference compound] (H-CCEYCCNPACTGCY-OH; disulfide 1-6, 2-10, 5-13) |  |  |  |  | ~20% | 35% |  |
| CCCCC(F)(F)[C@@]1(O)CC[C@H]2[C@@H](CC(=O)[C@@H]2CCCCCCC(=O)O)O1 [lubiprostone, reference compound] |  |  |  |  |  | 50% | ~13% |
